Assay [1] addresses T1, Tryptophan 2,3-dioxygenase (Homo sapiens, UniProt P48775). Kind of assay: Inhibition of N-terminal hexa-histidine tagged human TDO (19 to 388 residues) expressed in Escherichia coli Transetta (DE3) using L-tryptophan as substrate preincubated with enzyme for 10 mins followed by substrate addition and measured after 30 to 60 mins by microplate reader analysis.
Target sequence in this assay (P48775 whole entry, the tested form may be a part): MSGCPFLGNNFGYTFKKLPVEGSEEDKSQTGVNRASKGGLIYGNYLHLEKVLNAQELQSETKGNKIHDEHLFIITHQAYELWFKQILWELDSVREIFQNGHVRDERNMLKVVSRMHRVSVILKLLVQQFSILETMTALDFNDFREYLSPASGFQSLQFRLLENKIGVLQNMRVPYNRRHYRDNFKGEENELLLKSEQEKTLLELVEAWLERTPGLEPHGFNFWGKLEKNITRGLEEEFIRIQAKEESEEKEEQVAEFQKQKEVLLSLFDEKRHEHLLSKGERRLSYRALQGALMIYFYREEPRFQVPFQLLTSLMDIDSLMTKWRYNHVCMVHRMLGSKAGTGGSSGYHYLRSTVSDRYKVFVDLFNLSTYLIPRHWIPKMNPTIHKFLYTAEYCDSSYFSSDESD
Assay [2] deals with T2, Indoleamine 2,3-dioxygenase 1 (Homo sapiens, UniProt P14902). Kind of assay: Inhibition of N-terminal hexa-histidine tagged human IDO1 (12 to 403 residues) expressed in Escherichia coli Transetta (DE3) using L-tryptophan as substrate at 10 uM preincubated with enzyme for 10 mins followed by substrate addition and measured after 30 to 60 mins by microplate reader analysis relative to control. The following applies: time 40-70 min.
Target sequence in this assay (P14902 whole entry, looked up, the tested form may be a part): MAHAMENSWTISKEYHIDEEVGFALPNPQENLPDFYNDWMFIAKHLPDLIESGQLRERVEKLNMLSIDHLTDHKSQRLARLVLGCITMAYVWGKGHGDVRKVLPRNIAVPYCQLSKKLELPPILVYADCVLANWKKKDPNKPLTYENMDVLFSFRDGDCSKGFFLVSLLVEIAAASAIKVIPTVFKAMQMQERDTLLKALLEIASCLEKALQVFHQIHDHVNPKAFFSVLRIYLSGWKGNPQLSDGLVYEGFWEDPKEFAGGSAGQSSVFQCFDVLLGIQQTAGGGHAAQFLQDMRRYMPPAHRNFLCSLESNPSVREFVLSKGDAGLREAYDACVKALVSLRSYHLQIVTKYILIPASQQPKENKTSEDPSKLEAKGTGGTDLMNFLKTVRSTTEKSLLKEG

The target of assay [3] is T2, Indoleamine 2,3-dioxygenase 1. Put plainly: Inhibition of N-terminal hexa-histidine tagged human IDO1 (12 to 403 residues) expressed in Escherichia coli Transetta (DE3) using L-tryptophan as substrate at 100 uM preincubated with enzyme for 10 mins followed by substrate addition and measured after 30 to 60 mins by microplate reader analysis relative to control. The settings on record: time 40-70 min.
Target sequence in this assay (P14902 whole entry, looked up, the tested form may be a part): as above

Assay [4] deals with T1, Tryptophan 2,3-dioxygenase. Put plainly: Inhibition of N-terminal hexa-histidine tagged human TDO (19 to 388 residues) expressed in Escherichia coli Transetta (DE3) using L-tryptophan as substrate at 100 uM preincubated with enzyme for 10 mins followed by substrate addition and measured after 30 to 60 mins by microplate reader analysis relative to control. The following applies: time 40-70 min.
Target sequence in this assay (P48775 whole entry, looked up, the tested form may be a part): as the sequence (P48775 whole entry, the tested form may be a part) above

For a further assay, the system named is Jurkat. Kind of assay: Cytotoxicity against human Jurkat cells assessed as inhibition of cell growth incubated for 24 hrs by MTT assay. Format: functional, cell-based. Background: Tetrazolium dyes change colour on reduction, which living cells bring about.
A further assay relates to H22. Put plainly: Cytotoxicity against mouse H22 cells assessed as inhibition of cell growth incubated for 24 hrs by MTT assay. Format: functional, cell-based. The following applies: H22, 24 h.
Assay [5] deals with T2, Indoleamine 2,3-dioxygenase 1. Put plainly: Inhibition of N-terminal hexa-histidine tagged human IDO1 (12 to 403 residues) expressed in Escherichia coli Transetta (DE3) using L-tryptophan as substrate preincubated with enzyme for 10 mins followed by substrate addition and measured after 30 to 60 mins by microplate reader analysis.
Target sequence in this assay (P14902 whole entry, the tested form may be a part): as the sequence (P14902 whole entry, looked up, the tested form may be a part) above
Another assay concerns B16. Kind of assay: Cytotoxicity against mouse B16 cells assessed as inhibition of cell growth incubated for 24 hrs by MTT assay. Format: functional, cell-based. The settings on record: B16, 24 h.
Assay [6] has as its target T1, Tryptophan 2,3-dioxygenase. Put plainly: Inhibition of N-terminal hexa-histidine tagged human TDO (19 to 388 residues) expressed in Escherichia coli Transetta (DE3) using L-tryptophan as substrate at 10 uM preincubated with enzyme for 10 mins followed by substrate addition and measured after 30 to 60 mins by microplate reader analysis relative to control. The following applies: time 40-70 min.
Target sequence in this assay (P48775 whole entry, looked up, the tested form may be a part): as the sequence (P48775 whole entry, the tested form may be a part) above

A short description of assay [7]: Cytotoxicity against […] cells assessed as inhibition of cell growth incubated for 24 hrs by MTT assay. Format: functional, cell-based. The settings on record: Mus musculus, Hepa1-6, 24 h.
In the next assay the test system is HepG2. Put plainly: Cytotoxicity against human HepG2 cells assessed as inhibition of cell growth incubated for 24 hrs by MTT assay. Format: functional, cell-based. The following applies: HepG2, 24 h.
For the next assay, the system named is MOLM-13. Put plainly: Cytotoxicity against human MOLM-13 cells assessed as inhibition of cell growth incubated for 24 hrs by MTT assay. The following applies: MOLM-13, 24 h. The format is functional, cell-based.

Bounds are passed on as bounds.

`CS(=O)(=O)c1ccc(CNc2cc(C(F)(F)F)cc3[nH]ncc23)c([N+](=O)O)c1`: the IC50 (in general, the point on the concentration scale where inhibition reaches its midpoint) in assay [1] was 790 nM; in the assay with Jurkat, greater than 20 µM; with H22 it was greater than 20 µM; in assay [5], 58 µM; with B16, greater than 20 µM; in assay [7], greater than 20 µM. In addition, the IC50 in the assay with HepG2 and in the assay on MOLM-13 was greater than 20 µM throughout. For the same compound, the inhibition (in general, the change of the read-out against control, counted positive when it falls) turned out to be 63% in [2], 93% in assay [3], 98% in assay [4] and 96% in [6].
On to `O=[N+](O)c1c(Cl)cccc1CNc1cc(C(F)(F)F)cc2[nH]ncc12`, for which the half-maximal inhibitory concentration (IC50) in [1] is 170 nM; with Jurkat, greater than 20 µM; with H22, greater than 20 µM; in [5] it was 60 µM; with B16, greater than 20 µM; in assay [7], greater than 20 µM. The IC50 in the assay on HepG2 is greater than 20 µM; with MOLM-13, 7.69 µM. Moreover, the inhibition was 45% in [2], 69% in [3], 94% in [4] and 96% in assay [6].
In the case of `FC(F)(F)c1cc(NC[C@@H]2CCCCN2)c2cn[nH]c2c1`, the IC50 is 8050 nM in assay [1]; greater than 20 µM in the assay on Jurkat; 21.7 µM in the assay on H22; 18.7 µM in assay [5]; greater than 20 µM in the assay on B16; greater than 20 µM in assay [7]. For the same compound, the IC50 in the assay with HepG2 is 19.9 µM; with MOLM-13, greater than 20 µM. For the same compound, the inhibition is 32% in assay [2], 81% in [3], 88% in assay [4] and 64% in assay [6].
As to `O=[N+]([O-])c1cc(Br)c(F)cc1CNc1cc(C(F)(F)F)cc2[nH]ncc12`, the IC50 in assay [1] was 1460 nM; in the assay with Jurkat it was 2.82 µM; in the assay on H22, 1.85 µM; in assay [5] it was greater than 100 µM; in the assay with B16, 13.8 µM; in assay [7] it was 15 µM. Moreover, the concentration for half-maximal inhibition (IC50) in the assay on HepG2 was 1.96 µM; in the assay on MOLM-13 it was 4.27 µM. Besides, the inhibition in [2] was 31%; in assay [3], 64%; in [4], 88%; in [6] it was 85%.
Take `COc1cc(CNc2cc(Br)cc3[nH]ncc23)c([N+](=O)[O-])cc1OC`: the concentration for half-maximal inhibition (IC50) in [1] was 1040 nM; in the assay on Jurkat it was greater than 20 µM; in the assay with H22 it was 6.11 µM; in assay [5], 18.5 µM; in the assay on B16, greater than 20 µM; in assay [7], 15.2 µM. Also, the results for the IC50 with HepG2 and in the assay with MOLM-13 were 2.97 µM and greater than 20 µM, respectively. Further, the inhibition in [2] is 48%; in [3], 79%; in [4], 95%; in assay [6] it was 87%.
For the compound `O=[N+]([O-])c1cc(Cl)ccc1CNc1cc(C(F)(F)F)cc2[nH]ncc12`, the half-maximal inhibitory concentration (IC50) in [1] was 1700 nM; in the assay with Jurkat, 8.04 µM; with H22, 10.3 µM; in assay [5], 18 µM; with B16 it was greater than 20 µM; in [7], greater than 20 µM. Further, the half-maximal inhibitory concentration (IC50) was 5.82 µM in the assay on HepG2 and 4.13 µM with MOLM-13. Besides, the inhibition was 50% in [2], 77% in assay [3], 93% in assay [4] and 90% in [6].
Consider `O=[N+]([O-])c1cccc(CNc2cc(Br)cc3[nH]ncc23)c1`, for which the 50% inhibitory concentration (IC50) in assay [1] is 1600 nM; in the assay on Jurkat, greater than 20 µM; in the assay on H22, greater than 20 µM; in assay [5] it was 7.95 µM; with B16, greater than 20 µM; in [7], greater than 20 µM. Besides, the IC50 was 23.6 µM with HepG2 and greater than 20 µM with MOLM-13. Besides, the inhibition turned out to be 72% in assay [2], 95% in assay [3], 97% in assay [4] and 91% in [6].

The record behind these values is ChEMBL document CHEMBL5108015, “4,6-Disubstituted-1H-Indazole-4-Amine derivatives with immune-chemotherapy effect and in vivo antitumor activity” (Eur J Med Chem, 2022).
